Measured values: publication PMC6600393, “Synthesis and Cytostatic Effect of 3’-deoxy-3’-C-Sulfanylmethyl Nucleoside Derivatives with D-xylo Configuration” (Molecules, 2019)
“Also recorded” adds a separate entry of the source.

How the values were obtained:
[1] = system: SCC-VII (mouse squamous carcinoma) cell line; experiment: MTT cell viability assay on SCC-VII cells; format: cell-based; conditions: for SCC IC50: MTT, 48 h incubation, 5000 cells/well, '-' = no cytotoxicity at 20 µg/mL; for IC50: Mus musculus, 48 h; for SI (selectivity index): HaCaT IC50/SCC IC50
Method: (§1) For the investigation of the cytotoxic effect of nucleoside analogues we used healthy human keratinocyte (HaCaT) and tumorous squamous carcinoma SCC-VII cell lines. In the experiments, a standard citotoxicity assay, the MTT assay, was used in a 96-well plate. Importantly, different cell numbers were used in the case of the two different cell lines. The HaCaT cells were seeded 10^4/well concentration while the SCC-VII cells were seeded 5000/well concentration on the plate. In both cases the cells were treated with the nucleoside analogues at ~50% confluence.
SCC-VII is a carcinoma tumor that originally arose in the abdominal wall of C3H mice in Dr. Herman Suit’s laboratory at Harvard University, Boston, Massachusetts. SCC VII cells were grown in Dulbecco’s Modified Eagle’s Medium Nutrient Mixture (DMEM-HAM’S F12) (Sigma-Aldrich) supplemented with 2 mM L-glutamine, 23 mM NaHCO3, 100 U/mL penicillin, 100 U/mL streptomycin 1% non-essential amino acids and 10% fetal bovine serum.
(§2) Cell cultures had been kept under the same conditions during the experiments. Cells were stored at 37 °C, 95% humidity, and 5% CO2 in an incubator. During the MTT-assay, different starter cell number was used because of the cell cycle differences; HaCaT was started with 10.000/well meanwhile SCC VII with 5000/well. After passage, 24 h was assured for the cells to the adhesion. Then incubated with the compounds for 48 h. The experiments were performed in 96 well plates.
(§3) For the dilution of different concentrations of nucleoside analogues were prepared with DMSO 1% (v/v) and DMEM / DMEM-F12/Ham’s F12 cell culture medium.
(§4) After three days of incubation in the cell culture flask, cells were trypsinised into single cell suspensions. Aliquots (200 μL) of each cell suspension were placed in wells of 96-well-plates (Biocenter, Szeged, Hungary). Preliminary tests were conducted with cell numbers 5000 (SCC-VII) and 10,000 (HaCaT) per well. We have been tested five concentrations of each nucleoside analogues (20-10-5-2.5-1.25 µg/mL). The nucleoside analogues were dissolved in DMSO (1 v/v%) and DMEM/ DMEM-F12/Ham’s F12 were added to the wells to produce the required concentrations and the cells were similarly incubated for a further 48 h.
(§5) MTT (Sigma Aldrich, Budapest, Hungary) solution (0.5 mg/mL in PBS) 100 µL was added to each well. The plates were incubated for 1–2 h at 37 ^◦C, the wells aspirated, and MTT formazan extracted with 100 µL of DMSO aided by gentle agitation on a shaker. After 10 min at room temperature, the absorbances were read at 570 nm by an automatic plate reader (WALLAC Victor 2 1420 spectrophotometer), the instrument having been blanked beforehand on a row to which cells had not been added. Percentage viability (respiratory competence) of the population of cells in each well was expressed as: (Absorbance of treated cells/Absorbance of control cells) × 100. IC50 values of the nucleoside analogues were determined by Graphpad.

[2] = system: HaCaT (human keratinocyte) cell line; experiment: MTT cell viability assay on HaCaT cells; format: cell-based; conditions: for IC50: Homo sapiens, HaCaT, 48 h; for HaCaT IC50: MTT, 48 h incubation, 10,000 cells/well, '-' = no cytotoxicity at 20 µg/mL
Method: as §1
The HaCaT cell line was derived from human skin, the cells spontaneously transformed in vitro during long time incubation. Cells were cultured in DMEM medium (Biocenter, Szeged, Hungary) containing 10% fetal bovine serum (FBS, Hyclon, Logan, UT) and 1% antibiotic-antimycotic mix (Penicillin–Streptomycin–Neomycin).
as §2, §3, §4, §5

Row | Compound | SCC IC50 [1] | IC50 [1] | IC50 [2] | HaCaT IC50 [2] | SI (selectivity index) [1]
1 | CC(=O)OC[C@H]1O[C@@H](SC[C@@H]2[C@@H](O[Si](C)(C)C(C)(C)C)[C@H](n3ccc(=O)[nH]c3=O)O[C@@H]2CO[Si](C)(C)C(C)(C)C)[C@H](OC(C)=O)[C@@H](OC(C)=O)[C@@H]1OC(C)=O [Compound 1] | no cytotoxic effect; also recorded: no cytotoxicity; also recorded: complete loss of activity | > 20 µg/mL | > 20 µg/mL | no cytotoxic effect; also recorded: no cytotoxicity; also recorded: complete loss of activity | 
2 | CCCSC[C@@H]1[C@@H](O[Si](C)(C)C(C)(C)C)[C@H](n2ccc(=O)[nH]c2=O)O[C@@H]1CO[Si](C)(C)C(C)(C)C [Compound 2] | remarkable toxic effect | 11.8 ± 0.22 µM | 12.6 ± 0.22 µM | remarkable toxic effect | 1.07
3 | CC(=O)OC[C@H]1O[C@@H](SC[C@@H]2[C@@H](O[Si](C)(C)C(C)(C)C)[C@H](n3cc(C)c(=O)[nH]c3=O)O[C@@H]2CO[Si](C)(C)C(C)(C)C)[C@H](OC(C)=O)[C@@H](OC(C)=O)[C@@H]1OC(C)=O [Compound 3] | no cytotoxic effect; also recorded: no cytotoxicity; also recorded: complete loss of activity | > 20 µg/mL | 22.4 ± 2.91 µM | quite toxic | 
4 | CC(=O)OCC1OC(SCC2C(CO[Si](C)(C)C(C)(C)C)OC(n3cc(C)c(=O)[nH]c3=O)C2O[Si](C)(C)C(C)(C)C)C(OC(C)=O)C(OC(C)=O)C1OC(C)=O (stereo not drawn) [Compound 4] | no cytotoxic effect; also recorded: no cytotoxicity; also recorded: complete loss of activity | > 20 µg/mL | > 20 µg/mL | no cytotoxic effect; also recorded: no cytotoxicity; also recorded: complete loss of activity | 
5 | CCCSC[C@@H]1[C@@H](O[Si](C)(C)C(C)(C)C)[C@H](n2cc(C)c(=O)[nH]c2=O)O[C@@H]1CO[Si](C)(C)C(C)(C)C [Compound 5, 1-[3’-Deoxy-3’-C-(n-propylsulfanylmethyl)-2’,5’-di-O-(tert-butyldimethylsilyl)-β-D-xylofuranosyl]-thymine] | remarkable toxic effect | 15.2 ± 1 µM | 22.2 ± 1.7 µM | remarkable toxic effect | 1.46
6 | Cc1cn([C@@H]2O[C@H](CO[Si](C)(C)C(C)(C)C)[C@@H](O)[C@H]2O[Si](C)(C)C(C)(C)C)c(=O)[nH]c1=O [Compound 6T, 2’,5’-di-O-tert-butyldimethylsilyl-ribothymidine] | remarkable toxicity | 18.8 ± 0.74 µM | 15.6 ± 4.45 µM | remarkable toxicity | 0.83
7 | CCSC[C@@H]1[C@@H](O[Si](C)(C)C(C)(C)C)[C@H](n2cc(C)c(=O)[nH]c2=O)O[C@@H]1CO[Si](C)(C)C(C)(C)C [Compound 8, 1-[3’-Deoxy-3’-C-(ethylsulfanylmethyl)-2’,5’-di-O-(tert-butyldimethylsilyl)-β-D-xylofuranosyl]-thymine] |  | 15.5 ± 0.59 µM | 16.9 ± 0.55 µM |  | 1.09
8 | Cc1cn([C@@H]2O[C@H](CO[Si](C)(C)C(C)(C)C)[C@H](CSC(C)C)[C@H]2O[Si](C)(C)C(C)(C)C)c(=O)[nH]c1=O [Compound 9, 1-[3’-Deoxy-3’-C-(i-propylsulfanylmethyl)-2’,5’-di-O-(tert-butyldimethylsilyl)-β-D-xylofuranosyl]-thymine] |  | 15.2 ± 0.48 µM | 22.7 ± 1.34 µM |  | 1.49
9 | Cc1cn([C@@H]2O[C@H](CO[Si](C)(C)C(C)(C)C)[C@H](CSCC(C)C)[C@H]2O[Si](C)(C)C(C)(C)C)c(=O)[nH]c1=O [Compound 11, 1-[3’-Deoxy-3’-C-(i-butylsulfanylmethyl)-2’,5’-di-O-(tert-butyldimethylsilyl)-β-D-xylofuranosyl]-thymine] |  | 23.5 ± 0.12 µM | 15.5 ± 2.14 µM |  | 0.66
10 | Cc1cn([C@@H]2O[C@H](CO[Si](C)(C)C(C)(C)C)[C@H](CSC(C)(C)C)[C@H]2O[Si](C)(C)C(C)(C)C)c(=O)[nH]c1=O [Compound 12, 1-[3’-Deoxy-3’-C-(t-butylsulfanylmethyl)-2’,5’-di-O-(tert-butyldimethylsilyl)-β-D-xylofuranosyl]-thymine] |  | 31.1 ± 0.79 µM | > 34.9 µM |  | 
11 | CCCCCCSC[C@@H]1[C@@H](O[Si](C)(C)C(C)(C)C)[C@H](n2cc(C)c(=O)[nH]c2=O)O[C@@H]1CO[Si](C)(C)C(C)(C)C [Compound 13, 1-[3’-Deoxy-3’-C-(n-hexylsulfanylmethyl)-2’,5’-di-O-(tert-butyldimethylsilyl)-β-D-xylofuranosyl]-thymine] |  | 15.9 ± 0.32 µM | 22.9 ± 0.57 µM |  | 1.44
12 | CCCCCCCCSC[C@@H]1[C@@H](O[Si](C)(C)C(C)(C)C)[C@H](n2cc(C)c(=O)[nH]c2=O)O[C@@H]1CO[Si](C)(C)C(C)(C)C [Compound 14, 1-[3’-Deoxy-3’-C-(n-octylsulfanylmethyl)-2’,5’-di-O-(tert-butyldimethylsilyl)-β-D-xylofuranosyl]-thymine] |  | 26 ± 0.76 µM | 26.4 ± 0.37 µM |  | 1.02
13 | CCCCCCCCCCCCSC[C@@H]1[C@@H](O[Si](C)(C)C(C)(C)C)[C@H](n2cc(C)c(=O)[nH]c2=O)O[C@@H]1CO[Si](C)(C)C(C)(C)C [Compound 15, 1-[3’-Deoxy-3’-C-(n-dodecylsulfanylmethyl)-2’,5’-di-O-(tert-butyldimethylsilyl)-β-D-xylofuranosyl]-thymine] | complete loss of activity | > 20 µg/mL | > 20 µg/mL | complete loss of activity | 
14 | Cc1cn([C@@H]2O[C@H](CO[Si](C)(C)C(C)(C)C)[C@H](CSCc3ccccc3)[C@H]2O[Si](C)(C)C(C)(C)C)c(=O)[nH]c1=O [Compound 16, 1-[3’-Deoxy-3’-C-(benzylsulfanylmethyl)-2’,5’-di-O-(tert-butyldimethylsilyl)-β-D-xylofuranosyl]-thymine] |  | 14.6 ± 0.19 µM | 14.3 ± 0.36 µM |  | 0.98
15 | Cc1cn([C@@H]2O[C@H](CO[Si](C)(C)C(C)(C)C)[C@H](CSCCO)[C@H]2O[Si](C)(C)C(C)(C)C)c(=O)[nH]c1=O [Compound 17, 1-[3’-Deoxy-3’-C-(2-hydroxyethylsulfanylmethyl)-2’,5’-di-O-(tert-butyldimethylsilyl)-β-D-xylofuranosyl]-thymine] |  | 16 ± 0.17 µM | 14.6 ± 0.82 µM |  | 0.91
16 | CCCCSC[C@@H]1[C@@H](O[Si](C)(C)C(C)(C)C)[C@H](n2ccc(=O)[nH]c2=O)O[C@@H]1CO[Si](C)(C)C(C)(C)C [Compound 18, 1-[3’-Deoxy-3’-C-(n-butylsulfanylmethyl)-2’,5’-di-O-(tert-butyldimethylsilyl)-β-D-xylofuranosyl]-uracil] |  | 10.9 ± 0.18 µM | 14.4 ± 1.59 µM |  | 1.32
17 | CCSC[C@@H]1[C@@H](O)[C@H](n2cc(C)c(=O)[nH]c2=O)O[C@@H]1CO [Compound 19, 1-[3’-Deoxy-3’-C-(n-ethylsulfanylmethyl)-β-D-xylofuranosyl]-thymine] | did not show any cytotoxic activity; also recorded: no activity | > 20 µg/mL | > 20 µg/mL | did not show any cytotoxic activity; also recorded: no activity | 
18 | CN(Cc1cnc2nc(N)nc(N)c2n1)c1ccc(C(=O)N[C@@H](CCC(=O)O)C(=O)O)cc1 [Methotrexate, reference compound] |  | 216 ± 2.33 µM | 290.4 ± 2.76 µM |  | 
